The source of these data is paper PMC5520929, “Bilirubin neurotoxicity is associated with proteasome inhibition” (Cell Death & Disease, 2017).

This experiment has as its target T1, 20S proteasome chymotrypsin-like (CT-like) peptidase (Homo sapiens, UniProt P28074).
T1 construct: gene PSMB5; purified human 20S proteasomes; with 20S proteasome
T1 sequence (P28074 60-263): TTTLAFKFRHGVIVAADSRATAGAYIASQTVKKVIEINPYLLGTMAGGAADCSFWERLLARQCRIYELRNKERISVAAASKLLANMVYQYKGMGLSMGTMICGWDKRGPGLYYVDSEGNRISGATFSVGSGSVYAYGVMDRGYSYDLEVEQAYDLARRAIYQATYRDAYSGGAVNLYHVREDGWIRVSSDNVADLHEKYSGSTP
The experiment in a line: fluorogenic Suc-LLVY-AMC peptidase assay on purified human. Format: biochemical.

With `C=CC1=C(C)/C(=C/c2[nH]c(Cc3[nH]c(/C=C4\NC(=O)C(C)=C4C=C)c(C)c3CCC(=O)O)c(CCC(=O)O)c2C)NC1=O` [Bil, bilirubin], the IC50 is ~20 µM.

A word on the IC50: it is the concentration needed to halve the response being measured. A low value points to inhibition by little substance.
